“Also recorded” adds a separate entry of the source.
How the values were obtained:
male Sprague-Dawley rats = test: Example 4: effects on prostate and testis of male rats, 6 weeks; assay type: in vivo, rat; conditions: for testis histology: Leydig cells / testis histology: spermatogenesis: FIGS. 5a-f; for Prostate Weight as % Body Weight / Seminal Vesicle Weight as % Body Weight / Testis Weight as % Body Weight / Body Weight (g): 0.1 ug/g of body weight once a day, mean ± SEM; for Body Weight (g): n = 10
Description: Sixty male Sprague-Dawley rats, 7-8 weeks of age, were randomly assigned to groups of ten animals. Each group was randomly assigned to one of six treatments: Vehicle control (C), Estradiol-17β(E), (−)-Z-BDDA, (+)-Z-BDDA, (−)-HAA, and (+)-HAA. The compounds were all administered at a dose of 0.1 μg/g of body weight in 0.1 cc once a day for 6 weeks. The estrogenic compounds were dissolved in 10% ethanol and 90% olive oil vehicle. A temperature of 21° C. and an artificial 12 h light-dark cycle were maintained in the animal room. All animals were maintained on standard chow in powdered form for six weeks, and then sacrificed after an overnight fast under i.p. pentobarbitol anesthesia (50 mg/kg). Animal weight was measured weekly during the study. During sacrifice, blood was collected via cardiac puncture. Immediately following sacrifice, the fat pads, livers, pituitaries, testes, seminal vesicles, and prostate were removed and weighed, and snap frozen in liquid nitrogen. Prostates and one testis from 2-3 animals in each treatment group were fixed in 10% formalin for histological examination. These tissues were fixed overnight, blocked in paraffin, sectioned at 4 μm, stained with Hematoxylin and Eodsin, cover slipped, and examined microscopically. Quantitative results were subjected to an analysis of variance and means separated by a Tukey's Test (SYSTAT, Chicago, Ill.).

dialyzed LDL = test: Oxidized LDL lag time assay (antioxidant capacity); set-up: species or system human; conditions: 3 μM Cu2SO4, drugs at 10^−4, 10^−5, 10^−6, and 10^−7 M
Description: Experiments were carried out on dialyzed LDL collected from four fasted persons. The LDL was used within 10 days of dialysis. The oxidizing agent was 3 μM […]; phosphate buffered saline was used to control pH, and all drugs were dissolved in ethanol; final concentrations of each drug in the assays were 10^−4, 10^−5, 10^−6, and 10^−7 M. The combined results are shown in FIG. 6.

[1] = test system: estrogen receptors ERα and ERβ; conditions: direct receptor binding assays or dose-response profiles of estrogen-responsive reporter genes in cell culture; cited from earlier work
female mice = conditions: E2 5 g/animal/day, (±)-Z-BDDA 5, 50, and 500 g/animal/day, versus control group; cited from earlier work

Row | Structure (SMILES) | prostate histology (alveoli) (male Sprague-Dawley rats; 0.1 μg/g daily, FIGS. 4a-f) | testis histology: Leydig cells (male Sprague-Dawley rats; 0.1 μg/g daily) | testis histology: spermatogenesis (male Sprague-Dawley rats; 0.1 μg/g daily) | gross testes weights unadjusted for bodyweight (male Sprague-Dawley rats; 0.1 μg/g daily, data not shown) | Prostate Weight as % Body Weight (male Sprague-Dawley rats) | Seminal Vesicle Weight as % Body Weight (male Sprague-Dawley rats) | Testis Weight as % Body Weight (male Sprague-Dawley rats) | Body Weight (g) (male Sprague-Dawley rats) | antioxidant activity (shift in lag time of LDL oxidation) (dialyzed LDL) | binding affinity for estrogen receptors [1] | rate of weight gain (female mice)
1 | CC[C@H]1c2ccc3cc(O)ccc3c2CC[C@@]1(C)C(=O)O [(+)-Z-BDDA, (+)-Z-bisdehydrodoisynolic acid] | normal alveoli; also recorded: tubules and alveoli being slightly smaller | normal | normal | lighter (P<0.05) than those in control rats | 0.05 ± 0.01^1 % Body Weight | 0.23 ± 0.12^2 % Body Weight | 0.98 ± 0.15 % Body Weight | 234.8 ± 10.1^1,2 g | significant antioxidant activity | even lower than that of the (−) enantiomer | –
2 | C[C@]12CCC3c4ccc(O)cc4CCC3[C@@H]1CCC2O (single isomer, unassigned; (+)) [estradiol, (+)-17β-estradiol, reference compound] | – | small | halted at round (Golgi phase) spermatids | – | 0.05 ± 0.00^1 % Body Weight | 0.02 ± 0.00^1 % Body Weight | 0.49 ± 0.13^1,4 % Body Weight | 207.2 ± 4.6^1 g | very little antioxidant activity | – | increased

Source: patent publication US6608111B1, “Method for treating or preventing prostatic conditions” (Southern Illinois University Office of Research, …, priority 1998, dated 2003)
